Values joined by “and” are separate entries in the source; they are usually repeats but may differ in a detail not shown here. Identical values can stand only once.
Tested on: 485368-065-R4-J2-PDC spheroids with HUVEC/MSC, viability
Test: Anticancer human tumor 485368-065-R4-J2-PDC patient-derived pancreatic carcinoma cell line growth inhibition [CLK]
Conditions: for viability, T/C: stronger effect = lower value
Summary of the method: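 Multi-cell-type spheroids combined patient-derived tumor cells with HUVEC endothelial cells and human mesenchymal stem cells. Paired agents were dosed in half-log steps down from about clinical Cmax, or from 10 microM where Cmax was unknown.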

[1] = curve of first compound, second compound 0.0316 µM
[2] = curve of first compound, second compound 0.1 µM
[3] = curve of first compound, second compound 0.316 µM
[4] = curve of first compound, second compound 1 µM
[5] = curve of first compound, second compound 3.16 µM
[6] = curve of first compound, second compound 10 µM
[7] = second compound 0.0316 µM, first compound 0.0316 µM
[8] = second compound 0.0316 µM, first compound 0.1 µM
[9] = second compound 0.0316 µM, first compound 0.316 µM
[10] = second compound 0.0316 µM, first compound 1 µM
[11] = second compound 0.0316 µM, first compound 3.16 µM
[12] = second compound 0.0316 µM, first compound 10 µM
[13] = second compound 0.1 µM, first compound 0.0316 µM
[14] = second compound 0.1 µM, first compound 0.1 µM
[15] = second compound 0.1 µM, first compound 0.316 µM
[16] = second compound 0.1 µM, first compound 1 µM
[17] = second compound 0.1 µM, first compound 3.16 µM
[18] = second compound 0.1 µM, first compound 10 µM
[19] = second compound 0.316 µM, first compound 0.0316 µM
[20] = second compound 0.316 µM, first compound 0.1 µM
[21] = second compound 0.316 µM, first compound 0.316 µM
[22] = second compound 0.316 µM, first compound 1 µM
[23] = second compound 0.316 µM, first compound 3.16 µM
[24] = second compound 0.316 µM, first compound 10 µM
[25] = second compound 1 µM, first compound 0.0316 µM
[26] = second compound 1 µM, first compound 0.1 µM
[27] = second compound 1 µM, first compound 0.316 µM
[28] = second compound 1 µM, first compound 1 µM
[29] = second compound 1 µM, first compound 3.16 µM
[30] = second compound 1 µM, first compound 10 µM
[31] = second compound 3.16 µM, first compound 0.0316 µM
[32] = second compound 3.16 µM, first compound 0.1 µM
[33] = second compound 3.16 µM, first compound 0.316 µM
[34] = second compound 3.16 µM, first compound 1 µM
[35] = second compound 3.16 µM, first compound 3.16 µM
[36] = second compound 3.16 µM, first compound 10 µM
[37] = second compound 10 µM, first compound 0.0316 µM
[38] = second compound 10 µM, first compound 0.1 µM
[39] = second compound 10 µM, first compound 0.316 µM
[40] = second compound 10 µM, first compound 1 µM
[41] = second compound 10 µM, first compound 3.16 µM
[42] = second compound 10 µM, first compound 10 µM
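Further: spheroids exposed to compounds for seven days.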
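Wherever viability, T/C is given: 100% = DMSO vehicle control wells.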

In the case of COC1C=CCC(C)C(C)S(=O)(=O)NC(=O)c2ccc3c(c2)N(CC2CCC21)CC1(CCCc2cc(Cl)ccc21)CO3 (configuration not stated) + CN1CCN(c2cc(C(=O)Nc3cc4cc(-c5cnn(C)c5)ccc4cn3)ccn2)CC1, the IC50 [1] is reported as > 10 µM, the IC50 [2] is reported as > 10 µM and the IC50 [3] is reported as > 10 µM. For the same compound, the IC50 [4] was < 0.0316 µM, the IC50 [5] was < 0.0316 µM and the IC50 [6] was < 0.0316 µM. The viability, T/C [7] was 105%, the viability, T/C [8] was 106% and the viability, T/C [9] was 106%. For the same compound, the viability, T/C [10] was 113%, the viability, T/C [11] was 104% and the viability, T/C [12] was 91.6%. For the same compound, the viability, T/C [13] was 117%, the viability, T/C [14] was 124% and the viability, T/C [15] was 107%. For the same compound, the viability, T/C [16] was 114%, the viability, T/C [17] was 108% and the viability, T/C [18] was 90.8%. For the same compound, the viability, T/C [19] was 84%, the viability, T/C [20] was 86% and the viability, T/C [21] was 87.2%. For the same compound, the viability, T/C [22] was 78.6%, the viability, T/C [23] was 81.8% and the viability, T/C [24] was 63.5%. The viability, T/C [25] was 1.08%, the viability, T/C [26] was 2.18% and the viability, T/C [27] was 2.96%. The viability, T/C [28] was 2.24%, the viability, T/C [29] was 1.88% and the viability, T/C [30] was 6.49%. For the same compound, the viability, T/C [31] was 1.15%, the viability, T/C [32] was 3.34% and the viability, T/C [33] was 1.27%. It also gave a viability, T/C [34] of 2.24%, a viability, T/C [35] of 2.02% and a viability, T/C [36] of 4.8%. For the same compound, the viability, T/C [37] was 2.15%, the viability, T/C [38] was 4.22% and the viability, T/C [39] was 1.64%. It also gave a viability, T/C [40] of 3.68%, a viability, T/C [41] of 2.18% and a viability, T/C [42] of 2.71%.

With CC(Nc1ccc2c(c1)OCCn1cc(N3C(=O)OCC3C(F)F)nc1-2)C(N)=O (configuration not stated) the viability, T/C (compound 0.0316 µM) was 95.1% and 99.5%, the viability, T/C (compound 0.1 µM) was 102% and 117% and the viability, T/C (compound 0.316 µM) was 116% and 105%. For the same compound, the viability, T/C (compound 1 µM) was 100% and 102%, the viability, T/C (compound 3.16 µM) was 91.4% and 89.5% and the viability, T/C (compound 10 µM) was 86.5% and 79.1%. The IC50 (curve of compound) was > 10 µM.

With C=C(F)C(=O)N1CCN(c2nc(OCC3CCCN3C)nc3c2CCN(c2cccc4cccc(Cl)c24)C3)CC1CC#N (configuration not stated) + CN1CCN(c2cc(C(=O)Nc3cc4cc(-c5cnn(C)c5)ccc4cn3)ccn2)CC1 the IC50 [1] was > 10 µM, the IC50 [2] was > 10 µM and the IC50 [3] was > 10 µM. The IC50 [4] was < 0.0316 µM, the IC50 [5] was < 0.0316 µM and the IC50 [6] was < 0.0316 µM. For the same compound, the viability, T/C [7] was 114%, the viability, T/C [8] was 116% and the viability, T/C [9] was 108%. For the same compound, the viability, T/C [10] was 114%, the viability, T/C [11] was 105% and the viability, T/C [12] was 110%. The viability, T/C [13] was 109%, the viability, T/C [14] was 105% and the viability, T/C [15] was 106%. It also gave a viability, T/C [16] of 109%, a viability, T/C [17] of 105% and a viability, T/C [18] of 95.3%. It also gave a viability, T/C [19] of 89.7%, a viability, T/C [20] of 85.6% and a viability, T/C [21] of 89.4%. It also gave a viability, T/C [22] of 77.8%, a viability, T/C [23] of 77.4% and a viability, T/C [24] of 57.4%. For the same compound, the viability, T/C [25] was 1.02%, the viability, T/C [26] was 1.73% and the viability, T/C [27] was 2.07%. It also gave a viability, T/C [28] of 1.58%, a viability, T/C [29] of 1.92% and a viability, T/C [30] of 3.55%. It also gave a viability, T/C [31] of 1.58%, a viability, T/C [32] of 1.31% and a viability, T/C [33] of 1.13%. The viability, T/C [34] was 2.84%, the viability, T/C [35] was 1.64% and the viability, T/C [36] was 2%. For the same compound, the viability, T/C [37] was 1.69%, the viability, T/C [38] was 2.28% and the viability, T/C [39] was 1.56%. The viability, T/C [40] was 2.01%, the viability, T/C [41] was 3.1% and the viability, T/C [42] was 1.56%.

For Cn1ncnc1[C@H]1c2n[nH]c(=O)c3cc(F)cc(c23)N[C@@H]1c1ccc(F)cc1 + CN1CCN(c2cc(C(=O)Nc3cc4cc(-c5cnn(C)c5)ccc4cn3)ccn2)CC1, the IC50 [1] was > 0.1 µM, the IC50 [2] was > 0.1 µM and the IC50 [3] was 0.0886 µM. The IC50 [4] was < 0.000316 µM, the IC50 [5] was < 0.000316 µM and the IC50 [6] was < 0.000316 µM. For the same compound, the viability, T/C (second compound 0.0316 µM, first compound 0.000316 µM) was 99.9%, the viability, T/C (second compound 0.0316 µM, first compound 0.001 µM) was 107% and the viability, T/C (second compound 0.0316 µM, first compound 0.00316 µM) was 105%. For the same compound, the viability, T/C (second compound 0.0316 µM, first compound 0.01 µM) was 105%, the viability, T/C [7] was 109% and the viability, T/C [8] was 88.7%. The viability, T/C (second compound 0.1 µM, first compound 0.000316 µM) was 108%, the viability, T/C (second compound 0.1 µM, first compound 0.001 µM) was 112% and the viability, T/C (second compound 0.1 µM, first compound 0.00316 µM) was 119%. For the same compound, the viability, T/C (second compound 0.1 µM, first compound 0.01 µM) was 109%, the viability, T/C [13] was 96.6% and the viability, T/C [14] was 75.9%. The viability, T/C (second compound 0.316 µM, first compound 0.000316 µM) was 85.2%, the viability, T/C (second compound 0.316 µM, first compound 0.001 µM) was 87.8% and the viability, T/C (second compound 0.316 µM, first compound 0.00316 µM) was 84.1%. The viability, T/C (second compound 0.316 µM, first compound 0.01 µM) was 72.2%, the viability, T/C [19] was 55.9% and the viability, T/C [20] was 49.2%. For the same compound, the viability, T/C (second compound 1 µM, first compound 0.000316 µM) was 1.46%, the viability, T/C (second compound 1 µM, first compound 0.001 µM) was 0.88% and the viability, T/C (second compound 1 µM, first compound 0.00316 µM) was 1.83%. For the same compound, the viability, T/C (second compound 1 µM, first compound 0.01 µM) was 0.77%, the viability, T/C [25] was 1.6% and the viability, T/C [26] was 1.69%. For the same compound, the viability, T/C (second compound 3.16 µM, first compound 0.000316 µM) was 1%, the viability, T/C (second compound 3.16 µM, first compound 0.001 µM) was 1.76% and the viability, T/C (second compound 3.16 µM, first compound 0.00316 µM) was 0.88%. For the same compound, the viability, T/C (second compound 3.16 µM, first compound 0.01 µM) was 1.07%, the viability, T/C [31] was 1.7% and the viability, T/C [32] was 1.76%. It also gave a viability, T/C (second compound 10 µM, first compound 0.000316 µM) of 2.24%, a viability, T/C (second compound 10 µM, first compound 0.001 µM) of 1.19% and a viability, T/C (second compound 10 µM, first compound 0.00316 µM) of 1.54%. For the same compound, the viability, T/C (second compound 10 µM, first compound 0.01 µM) was 2.1%, the viability, T/C [37] was 2.02% and the viability, T/C [38] was 1.77%.

With CCCS(=O)(=O)Nc1ccc(F)c(C(=O)c2c[nH]c3ncc(-c4ccc(Cl)cc4)cc23)c1F the viability, T/C (compound 0.0316 µM) was 103% and 95.3%, the viability, T/C (compound 0.1 µM) was 109% and 96.8% and the viability, T/C (compound 0.316 µM) was 95.8% and 90.5%. For the same compound, the viability, T/C (compound 1 µM) was 93.7% and 90.6%, the viability, T/C (compound 3.16 µM) was 91.3% and 80.7% and the viability, T/C (compound 10 µM) was 123% and 108%. For the same compound, the IC50 (curve of compound) was > 10 µM.

With CC1COCCN1c1cc(C2(S(C)(=N)=O)CC2)nc(-c2ccnc3[nH]ccc23)n1 (configuration not stated) + CNC(=O)c1ccc(Nc2nc(OC3CCCC3)c3c(-c4ccc5nc(C)oc5c4)c[nH]c3n2)c(OC)c1 the IC50 [1] was > 10 µM, the IC50 [2] was > 10 µM and the IC50 [3] was > 10 µM. The IC50 [4] was > 10 µM, the IC50 [5] was > 10 µM and the IC50 [6] was > 10 µM. It also gave a viability, T/C [7] of 82.7%, a viability, T/C [8] of 96% and a viability, T/C [9] of 102%. The viability, T/C [10] was 101%, the viability, T/C [11] was 99.2% and the viability, T/C [12] was 107%. The viability, T/C [13] was 91.1%, the viability, T/C [14] was 95.1% and the viability, T/C [15] was 101%. For the same compound, the viability, T/C [16] was 97.6%, the viability, T/C [17] was 102% and the viability, T/C [18] was 97.4%. For the same compound, the viability, T/C [19] was 84.7%, the viability, T/C [20] was 85% and the viability, T/C [21] was 75.9%. It also gave a viability, T/C [22] of 89.7%, a viability, T/C [23] of 90.3% and a viability, T/C [24] of 82%. It also gave a viability, T/C [25] of 80.3%, a viability, T/C [26] of 78% and a viability, T/C [27] of 72.6%. The viability, T/C [28] was 81.2%, the viability, T/C [29] was 90.1% and the viability, T/C [30] was 73.4%. For the same compound, the viability, T/C [31] was 76.3%, the viability, T/C [32] was 78.2% and the viability, T/C [33] was 68%. The viability, T/C [34] was 72.7%, the viability, T/C [35] was 68.7% and the viability, T/C [36] was 54.1%. The viability, T/C [37] was 74%, the viability, T/C [38] was 70.6% and the viability, T/C [39] was 62.2%. For the same compound, the viability, T/C [40] was 71.6%, the viability, T/C [41] was 69% and the viability, T/C [42] was 59.6%.
